Experimental data from patent US11028095B2, “Spiro-lactam and bis-spiro-lactam NMDA receptor modulators and uses thereof” (Aptinyx Inc., priority 2016, dated 2021).
Like-named read-outs stand apart in the source and are kept apart here.

What was measured:
[1] = system: positive (hedonic) 50-kHz ultrasonic vocalizations (USVs); assay: Positive Emotional Learning (PEL) test; format: in vivo; conditions: rat, PO, one hour after administration
Procedure: Experiments were conducted as described in Burgdorf et al., “The effect of selective breeding for differential rates of 50-kHz ultrasonic vocalizations on emotional behavior in rats,” Devel. […] Rat 50-kHz ultrasonic vocalization (hedonic USVs) is a validated model for the study of positive affective state and is best elicited by rough-and-tumble play.
The PEL assay measures the acquisition of positive (hedonic) 50-kHz ultrasonic vocalizations (USVs) to a social stimulus, heterospecific rough and tumble play stimulation. Heterospecific rough-and-tumble play stimulation was administered by the experimenter's right hand. One hour after administration of test compound or vehicle negative control (0.5% sodium carboxymethyl cellulose in 0.9% sterile saline vehicle), animals received 3 min of heterospecific rough-and-tumble play that consisted of alternating 15 sec blocks of heterospecific play and 15 sec of no-stimulation. […] Frequency modulated 50-kHz USVs that occurred during each of the no-stimulation periods were quantified to measure PEL. Animals were not habituated to play stimulation before testing. Positive emotional learning was measured during the conditioned stimulus (CS) trials preceding the tickle unconditioned stimulus (UCS) trials. Animals received 15 second trials consisting of 6 CS and 6 UCS trials each (3 min total).

[2] = target: T1, NMDAR2C expressing HEK cell membranes (Homo sapiens, UniProt Q05586+Q14957); assay: NMDAR agonist assay, [3H]MK-801 binding, NMDAR2C; format: biochemical; conditions: for EC50: [3H]MK-801 binding
T1 construct: expressed in transfected cells; host or cells: HEK cells (membrane extract)
Procedure: (§1) (nonequilibrium conditions).
(§2) The baseline value was determined from the best fit curve of the DPM values modeled using the GraphPad program and the log(agonist) vs. response(three parameters) algorithm was then subtracted from all points in the dataset.

[3] = Microsomal stability (Rat); format: in vitro ADME; conditions: rat microsomes
Procedure: (§3) Microsomal stability of disclosed compounds was investigated. The following table indicates the percent of compound remaining after 60 minutes.

Plasma stability (Rat) = format: in vitro ADME
Procedure: (§4) Plasma stability of disclosed compounds was investigated. The following table indicates the percent of compound remaining after 60 minutes.

[4] = target: T2, NMDAR2A expressing HEK cell membranes (Homo sapiens, UniProt Q12879); assay: NMDAR agonist assay, [3H]MK-801 binding, NMDAR2A; format: biochemical; conditions: 50 μM glutamate; relative to 1 mM glycine
T2 construct: expressed in transfected cells; host or cells: HEK cells (membrane extract)
Procedure: as §1, §2

[5] = target: T3, NMDAR2A expressing HEK cell membranes (Homo sapiens, UniProt Q05586+Q12879); assay: NMDAR agonist assay, [3H]MK-801 binding, NMDAR2A; format: biochemical; conditions: for EC50: [3H]MK-801 binding; for Emax: relative to 1 mM glycine
T3 construct: expressed in transfected cells; host or cells: HEK cells (membrane extract)
Procedure: as §1, §2

[6] = Microsomal stability (Human); format: in vitro ADME; conditions: human microsomes
Procedure: as §3

[7] = target: T4, NMDAR2B expressing HEK cell membranes (Homo sapiens, UniProt Q13224); assay: NMDAR agonist assay, [3H]MK-801 binding, NMDAR2B; format: biochemical; conditions: 50 μM glutamate; relative to 1 mM glycine
T4 construct: expressed in transfected cells; host or cells: HEK cells (membrane extract)
Procedure: as §1, §2

[8] = target: T5, NMDAR2B expressing HEK cell membranes (Homo sapiens, UniProt Q05586+Q13224); assay: NMDAR agonist assay, [3H]MK-801 binding, NMDAR2B; format: biochemical; conditions: for EC50: [3H]MK-801 binding; for Emax: relative to 1 mM glycine
T5 construct: expressed in transfected cells; host or cells: HEK cells (membrane extract)
Procedure: as §1, §2

Plasma stability (Human) = format: in vitro ADME
Procedure: as §4

[9] = target: T6, NMDAR2D expressing HEK cell membranes (Homo sapiens, UniProt O15399+Q05586); assay: NMDAR agonist assay, [3H]MK-801 binding, NMDAR2D; format: biochemical; conditions: for Emax: read-out: NMDAR2D: % maximal [3H]MK-801 binding relative to 1 mM glycine; for EC50: [3H]MK-801 binding, read-out: NMDAR2D: log EC50 (converted)
T6 construct: expressed in transfected cells; host or cells: HEK cells (membrane extract)
Procedure: as §1, §2

[10] = Oral pharmacokinetics (plasma, brain, CSF); format: in vivo; conditions: Sprague Dawley rats, per os, 10 mg/kg; for AUC(0-t) / Tmax / Cmax / bioavailability: rat, plasma, po; for Tmax: normal saline, read-out: Tmax; for Cmax: read-out: Cmax
Procedure: In another experiment, Sprague Dawley rats were dosed per os using a normal saline formulation containing 10 mg/kg of the compounds identified in the table below. Plasma, brain, and CSF samples were analyzed at various time points over a 24 hour period. The table below summarizes the results of the oral pharmacokinetics.

IV pharmacokinetics = format: in vivo; conditions: rat, in vivo, 2 mg/kg, Sprague Dawley rats, normal saline; for C0: read-out: C0; for Vd: read-out: Vss
Procedure: Sprague Dawley rats were dosed intravenously using a normal saline formulation containing 2 mg/kg of the compounds identified in the below table. The table below summarizes the results of the IV pharmacokinetics.

[11] = read-out: NMDAR2C: % maximal [3H]MK-801 binding relative to 1 mM glycine
[12] = NMDAR2A: log EC50, 50 μM glutamate
[13] = NMDAR2B: log EC50, 50 μM glutamate
[14] = 50 μM glutamate, relative to 1 mM glycine, read-out: NMDAR2C A: % maximal [3H]MK-801 binding relative to 1 mM glycine
[15] = 50 μM glutamate, read-out: NMDAR2A: log EC50 (converted)
[16] = 50 μM glutamate, read-out: NMDAR2B log EC50 (converted)
[17] = 50 μM glutamate, read-out: NMDAR2B: % maximal [3H]MK-801 binding relative to 1 mM glycine
[18] = 50 μM glutamate, relative to 1 mM glycine
[19] = 50 μM glutamate, read-out: NMDAR2C: log EC50 (converted)

T3 sequence (Q12879 23-1464, other chains not shown): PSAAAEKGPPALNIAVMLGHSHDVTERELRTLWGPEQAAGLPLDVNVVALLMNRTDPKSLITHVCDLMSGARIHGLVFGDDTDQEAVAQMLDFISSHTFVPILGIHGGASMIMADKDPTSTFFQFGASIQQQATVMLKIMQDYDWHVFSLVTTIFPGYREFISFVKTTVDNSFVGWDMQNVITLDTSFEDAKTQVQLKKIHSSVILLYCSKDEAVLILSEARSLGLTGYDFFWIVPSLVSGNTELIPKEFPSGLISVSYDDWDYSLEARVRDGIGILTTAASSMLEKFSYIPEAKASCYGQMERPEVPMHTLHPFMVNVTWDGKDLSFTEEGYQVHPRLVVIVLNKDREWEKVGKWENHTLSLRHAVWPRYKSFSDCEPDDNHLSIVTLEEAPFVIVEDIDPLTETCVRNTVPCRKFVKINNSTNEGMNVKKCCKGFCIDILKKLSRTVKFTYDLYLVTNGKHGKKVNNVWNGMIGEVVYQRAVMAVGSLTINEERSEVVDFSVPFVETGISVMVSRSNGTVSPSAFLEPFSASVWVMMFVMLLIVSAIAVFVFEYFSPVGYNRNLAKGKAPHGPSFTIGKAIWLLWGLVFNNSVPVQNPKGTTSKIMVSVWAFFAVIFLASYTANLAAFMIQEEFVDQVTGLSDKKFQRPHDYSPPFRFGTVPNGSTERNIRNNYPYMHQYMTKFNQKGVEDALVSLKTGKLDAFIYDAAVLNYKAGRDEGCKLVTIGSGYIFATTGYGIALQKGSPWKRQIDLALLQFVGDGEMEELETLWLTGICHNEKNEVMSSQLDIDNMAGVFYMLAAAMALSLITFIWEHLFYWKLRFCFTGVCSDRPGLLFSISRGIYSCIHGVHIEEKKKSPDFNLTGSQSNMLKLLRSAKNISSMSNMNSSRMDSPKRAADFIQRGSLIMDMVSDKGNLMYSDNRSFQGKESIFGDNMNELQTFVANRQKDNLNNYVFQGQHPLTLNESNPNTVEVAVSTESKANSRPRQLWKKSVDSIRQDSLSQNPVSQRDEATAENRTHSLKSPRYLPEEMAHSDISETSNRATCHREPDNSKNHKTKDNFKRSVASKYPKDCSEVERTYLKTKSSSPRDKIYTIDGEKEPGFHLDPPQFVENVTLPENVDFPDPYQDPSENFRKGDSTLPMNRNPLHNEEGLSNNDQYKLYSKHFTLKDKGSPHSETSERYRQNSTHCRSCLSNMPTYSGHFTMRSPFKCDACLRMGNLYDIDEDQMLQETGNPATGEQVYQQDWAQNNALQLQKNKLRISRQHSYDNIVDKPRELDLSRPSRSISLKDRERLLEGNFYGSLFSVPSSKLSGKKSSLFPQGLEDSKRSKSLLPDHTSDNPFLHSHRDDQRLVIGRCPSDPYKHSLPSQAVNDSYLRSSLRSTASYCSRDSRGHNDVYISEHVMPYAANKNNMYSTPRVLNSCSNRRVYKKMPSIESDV
T2 sequence (Q12879 23-1464, other chains not shown): as above
T4 sequence (Q13224 27-1484, other chains not shown): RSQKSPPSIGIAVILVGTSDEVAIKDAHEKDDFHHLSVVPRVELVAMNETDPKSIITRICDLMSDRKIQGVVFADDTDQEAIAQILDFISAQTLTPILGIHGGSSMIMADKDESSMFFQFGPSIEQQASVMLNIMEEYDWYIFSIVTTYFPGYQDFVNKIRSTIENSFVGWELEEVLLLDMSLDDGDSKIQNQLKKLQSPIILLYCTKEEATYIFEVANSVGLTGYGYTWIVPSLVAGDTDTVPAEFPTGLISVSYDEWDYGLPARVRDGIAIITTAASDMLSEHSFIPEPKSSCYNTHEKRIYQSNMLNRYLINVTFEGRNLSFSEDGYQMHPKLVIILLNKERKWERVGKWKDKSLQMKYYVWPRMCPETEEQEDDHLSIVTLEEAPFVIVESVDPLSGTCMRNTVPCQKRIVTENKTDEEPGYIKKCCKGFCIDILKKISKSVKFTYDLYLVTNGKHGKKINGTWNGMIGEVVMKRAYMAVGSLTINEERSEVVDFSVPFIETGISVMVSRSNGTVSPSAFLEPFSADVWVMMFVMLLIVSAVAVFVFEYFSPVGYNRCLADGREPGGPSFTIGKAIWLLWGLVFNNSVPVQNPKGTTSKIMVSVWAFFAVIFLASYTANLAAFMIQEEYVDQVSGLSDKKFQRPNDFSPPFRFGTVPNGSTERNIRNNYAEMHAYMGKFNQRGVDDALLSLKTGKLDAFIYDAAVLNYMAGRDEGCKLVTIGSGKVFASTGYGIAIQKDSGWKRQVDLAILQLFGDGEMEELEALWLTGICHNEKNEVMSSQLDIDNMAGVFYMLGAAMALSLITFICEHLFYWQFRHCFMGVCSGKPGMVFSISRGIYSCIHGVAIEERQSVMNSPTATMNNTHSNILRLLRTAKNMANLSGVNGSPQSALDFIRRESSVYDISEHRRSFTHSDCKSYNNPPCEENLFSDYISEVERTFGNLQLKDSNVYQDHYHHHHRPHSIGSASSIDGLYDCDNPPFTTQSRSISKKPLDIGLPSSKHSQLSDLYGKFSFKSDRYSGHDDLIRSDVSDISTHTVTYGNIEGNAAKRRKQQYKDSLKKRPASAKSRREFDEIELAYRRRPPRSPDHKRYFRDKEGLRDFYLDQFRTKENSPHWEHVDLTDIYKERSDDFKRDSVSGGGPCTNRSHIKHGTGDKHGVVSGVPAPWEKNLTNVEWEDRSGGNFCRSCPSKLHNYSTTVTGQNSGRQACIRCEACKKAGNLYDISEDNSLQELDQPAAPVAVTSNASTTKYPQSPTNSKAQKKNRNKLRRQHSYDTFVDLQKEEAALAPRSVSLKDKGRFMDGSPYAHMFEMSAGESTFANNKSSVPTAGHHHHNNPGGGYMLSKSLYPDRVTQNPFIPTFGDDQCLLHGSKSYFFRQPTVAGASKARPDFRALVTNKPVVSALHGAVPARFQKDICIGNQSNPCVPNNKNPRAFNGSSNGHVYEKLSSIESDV

Structure (SMILES) | Microsomal (Rat): percent of compound remaining after 60 minutes [3] [%] | Plasma (Rat): percent of compound remaining after 60 minutes (Plasma stability (Rat)) [%] | NMDAR2A: % maximal [3H]MK-801 binding relative to 1 mM glycine [4] | Microsomal (Human): percent of compound remaining after 60 minutes [6] [%] | NMDAR2B: % maximal [3H]MK-801 binding relative to 1 mM glycine [7] | Plasma (Human): percent of compound remaining after 60 minutes (Plasma stability (Human)) [%] | Emax [2, 14] [%] | CSF Cmax [10] [ng/mL] | Brain Cmax [10] [ng/mL] | AUC(0-t) ([10]; Sprague Dawley) [ng·h/mL] | Tmax ([10]; Sprague Dawley) [min] | Cmax ([10]; Sprague Dawley) [ng/mL] | AUC(0-t) (IV pharmacokinetics; Sprague Dawley, iv) [ng·h/mL] | clearance (IV pharmacokinetics; Sprague Dawley, iv) [mL/min/kg] | half-life (IV pharmacokinetics; Sprague Dawley, iv) [min] | C0 (IV pharmacokinetics; Sprague Dawley, iv) [ng/mL] | Vd (IV pharmacokinetics; Sprague Dawley, iv) [L/kg] | EC50 [5, 15] [nM] | EC50 [8, 16] [nM] | EC50 ([9]; 50 μM glutamate) [nM] | also measured
CN1C2(CCC13CNC3=O)CNC2=O (single isomer, unassigned) [AB-2, 5-methyl-2,5,8-triazadispiro[3.1.36.24]undecane-1,7-dione] | 78 | 83 | − (−=0) | 72 | + (<100%=+) | 86 | – | – | – | – | – | – | – | – | – | – | – | – | – | – | Max Effect (mean number of 50 kHz USVs per 15 seconds) ([1]; dose 0.001-1 mg/kg): ** (**: 11-16.9); EC50 ([2]; NMDAR2C: log EC50, 50 μM glutamate): < 1 nM; Emax [2, 11]: < 100%; EC50 [5, 12]: > 100 nM; EC50 [8, 13]: < 1 nM; Emax [9]: < 100%
C[C@@H](O)[C@H](NC(=O)C1CCC2(CNC2=O)N1)C(N)=O (single isomer, unassigned) [AQ-1] | 84 | 100 | – | 100 | – | 100 | < 100 | 0 | 0 | 350 | 49.8 | 133 | 3330 | 9.84 | 21.6 | 6820 | 0.28 | < 1 | < 1 | < 1 | Max Effect (mean number of 50 kHz USVs per 15 seconds) ([1]; dose 0.1 mg/kg, 0.1 mg/kg): ** (**: 11-16.9); % F [10]: 2%; Emax ([5]; 50 μM glutamate, read-out: NMDAR2A: % maximal [3H]MK-801 binding relative to 1 mM glycine): < 100%; Emax [8, 17]: < 100%; Emax [9, 18]: < 100%
CC(C)(C)OC(=O)N1CC2(CN(OCc3ccccc3)C2=O)CC12CN(OCc1ccccc1)C2=O (single isomer, unassigned) [AW, tert-butyl 2,8-bis(benzyloxy)-1,7-dioxo-2,8,10-triazadispiro[3.1.36.24]undecane-10-carboxylate] | 0 | 0 | + (<100%=+) | 2 | ++ (>100%=++) | 90 | < 100 | – | – | – | – | – | – | – | – | – | – | < 1 | – | < 1 | Max Effect (mean number of 50 kHz USVs per 15 seconds) ([1]; dose 0.1 mg/kg): ** (**: 11-16.9); EC50 [2, 19]: < 1 nM; Emax [9, 18]: < 100%
CC(C)(C)OC(=O)N1C(C(N)=O)CCC12CN(OCc1ccccc1)C2=O (single isomer, unassigned) [BH, tert-butyl 2-(benzyloxy)-6-carbamoyl-1-oxo-2,5-diazaspiro[3.4]octane-5-carboxylate] | 100 | 95 | − (−=0) | 100 | + (<100%=+) | 90 | > 100 | 36.66 | 0 | 614 | 15 | 859 | 656 | 50.5 | 20.4 | 2390 | 0.82 | > 100 | < 1 | – | Max Effect (mean number of 50 kHz USVs per 15 seconds) ([1]; dose 0.1 mg/kg): ** (**: 11-16.9); EC50 [2, 19]: < 1 nM; bioavailability ([10]; Sprague Dawley): 18%
C[C@@H](O)[C@@H](C(N)=O)N1CC2(CCC3(CN([C@H](C(N)=O)[C@@H](C)O)C3=O)N2C(=O)OC(C)(C)C)C1=O (stereo partly drawn) [BY, tert-butyl 2,8-bis((2S,3R)-1-amino-3-hydroxy-1-oxobutan-2-yl)-1,7-dioxo-2,5,8-triazadispiro[3.1.36.24]undecane-5-carboxylate] | 81 | 82 | – | 100 | – | 81 | < 100 | 0 | 0 | 486 | 49.8 | 156 | 5960 | 5.6 | 38.4 | 10200 | 0.15 | > 100 | < 1 | > 100 | Max Effect (mean number of 50 kHz USVs per 15 seconds) ([1]; dose 0.1 mg/kg): ** (**: 11-16.9); EC50 [2, 19]: < 1 nM; bioavailability ([10]; Sprague Dawley): 2%; Emax [8, 17]: > 100%; Emax [9, 18]: 0%
CC(C)CN1[C@]2(CC[C@]13CNC3=O)CNC2=O [Compound AF, 5-isobutyl-2,5,8-triazadispiro[3.1.36.24]undecane-1,7-dione] | 87 | 90 | – | 92 | – | 99 | – | 2781 | 1313.8 | – | – | – | – | – | – | – | – | – | – | – | Max Effect (mean number of 50 kHz USVs per 15 seconds) ([1]; dose 0.001-1 mg/kg): ** (**: 11-16.9); Emax [2, 11]: > 100%; AUC(0-t) [10]: 16100 ng·h/mL; bioavailability [10]: 82%; Tmax [10]: 25.2 min; Cmax [10]: 7250 ng/mL; AUC(0-t) (IV pharmacokinetics): 6450 ng·h/mL; clearance (IV pharmacokinetics): 5.2 mL/min/kg; half-life (IV pharmacokinetics): 299 min; C0 (IV pharmacokinetics): 3900 ng/mL; Vd (IV pharmacokinetics): 0.59 L/kg; EC50 [5, 12]: < 1 nM; Emax ([5]; read-out: NMDAR2A: % maximal [3H]MK-801 binding relative to 1 mM glycine, 50 μM glutamate): < 100%; EC50 [8, 13]: < 1 nM; Emax ([8]; read-out: NMDAR2B: % maximal [3H]MK-801 binding relative to 1 mM glycine, 50 μM glutamate): < 100%; Emax [9]: < 100%
